{
  "source": "ChEMBL document CHEMBL5625202",
  "about": "“Synthesis, characterization and anti-breast cancer activities of stachydrine derivatives” (Eur J Med Chem, 2023)",
  "key": {"[1]": {"experiment": "Toxicity in BALB/c mouse implanted with mouse 4T1 cells assessed as increase in spleen edema at 0.2 mmol/Kg, po administered once every day for 14 days relative to control", "assay_type": "organism-based", "details": "in vivo, 336 h, time 14 day"}, "[2]": {"experiment": "Toxicity in BALB/c mouse implanted with mouse 4T1 cells assessed as change in kidney histopathology at 0.2 mmol/Kg, po administered once every day for 14 days", "assay_type": "organism-based", "details": "in vivo, 336 h, time 14 day"}, "[3]": {"experiment": "Toxicity in BALB/c mouse implanted with mouse 4T1 cells assessed as increase in AST level at 0.2 mmol/Kg, po administered once every day for 14 days by routine blood analysis", "assay_type": "organism-based", "details": "in vivo, 336 h, time 14 day"}, "4T1 [4]": {"tested_on": "4T1", "experiment": "Antitumor activity against mouse 4T1 cells implanted in BALB/c mouse assessed as tumor growth inhibition at 0.2 mmol/Kg, po administered once every day for 14 days relative to control", "assay_type": "functional", "details": "4T1, 336 h, time 14 day, read-out: TGI"}, "4T1 [5]": {"tested_on": "4T1", "experiment": "Antitumor activity against mouse 4T1 cells implanted in BALB/c mouse assessed as appearance of larger void areas in tumor at 0.2 mmol/Kg, po administered once daily for 14 days by histological staining based analysis", "assay_type": "functional, organism-based", "details": "time 14.0 day"}, "[6]": {"experiment": "Toxicity in BALB/c mouse implanted with mouse 4T1 cells assessed as increase in white blood cells at 0.2 mmol/Kg, po administered once every day for 14 days by routine blood analysis", "assay_type": "organism-based", "details": "in vivo, 336 h, time 14 day"}, "4T1 [7]": {"tested_on": "4T1", "experiment": "Induction of G0/G1 phase cell cycle arrest in mouse 4T1 cells assessed as decrease in G2/M phase cells at 1.25 to 40 uM incubated for 24 hrs by flow cytometry", "assay_type": "functional, cell-based", "details": "dose 1.25-40 µM"}, "4T1 [8]": {"tested_on": "4T1", "experiment": "Antitumor activity against mouse 4T1 cells implanted in BALB/c mouse assessed as change in tumor weight at 0.2 mmol/Kg, po administered once every day for 14 days", "assay_type": "functional, organism-based", "details": "time 14.0 day"}, "[9]": {"experiment": "Toxicity in BALB/c mouse implanted with mouse 4T1 cells assessed as change in lung histopathology at 0.2 mmol/Kg, po administered once every day for 14 days", "assay_type": "organism-based", "details": "in vivo, 336 h, time 14 day"}, "4T1 [10]": {"tested_on": "4T1", "experiment": "Induction of cell cycle arrest in mouse 4T1 cells assessed as accumulation of cells in G0/G1 phase at 40 micromol/L incubated for 24 hrs by flow cytometry (reference value: 53.6%)", "assay_type": "functional", "details": "dose 40 µmol/L, at 40 µM"}, "[11]": {"experiment": "Toxicity in BALB/c mouse implanted with mouse 4T1 cells assessed as increase in neutrophil granulocytes at 0.2 mmol/Kg, po administered once every day for 14 days by routine blood analysis", "assay_type": "organism-based", "details": "in vivo, 336 h, time 14 day"}, "[12]": {"experiment": "Prodrug conversion in Sprague-Dawley rat plasma assessed as Stachydrine release at 10 mg/kg, iv measured after 24 hrs by LC-MS/MS analysis", "assay_type": "ADME, organism-based", "details": "in vivo"}, "4T1 [13]": {"tested_on": "4T1", "experiment": "Inhibition of cell invasion in mouse 4T1 cells at 30 micromol/mL incubated for 24 hrs by microscopic analysis", "assay_type": "functional, cell-based", "details": "dose 30.0 µmol/ml"}, "[14]": {"experiment": "Toxicity in BALB/c mouse implanted with mouse 4T1 cells assessed as increase in lymphocytes at 0.2 mmol/Kg, po administered once every day for 14 days by routine blood analysis", "assay_type": "organism-based", "details": "in vivo, 336 h, time 14 day"}},
  "note": "Activity calls are given as the source filed them. The calls are words filed in the database; no cut-off is given here.",
  "data": [
    {"smiles": "CCCCCCCCCCCCOC(=O)C1CCC[N+]1(C)C.[Cl-]", "note": "(centres undefined)", "values": [
      {"measurement": "Activity", "setting": "[1]", "result": "Toxic"},
      {"measurement": "Activity", "setting": "[2]", "result": "Non-Toxic"},
      {"measurement": "Activity", "setting": "[3]", "result": "Toxic"},
      {"measurement": "inhibition in vivo at 200 µmol/kg", "setting": "4T1 [4]", "result": 56.3, "unit": "%"},
      {"measurement": "Activity", "setting": "4T1 [5]", "result": "Active"},
      {"measurement": "Activity", "setting": "[6]", "result": "Non-Toxic"},
      {"measurement": "Activity", "setting": "4T1 [7]", "result": "Active"},
      {"measurement": "Activity", "setting": "4T1 [8]", "result": "Active"},
      {"measurement": "Activity", "setting": "[9]", "result": "Non-Toxic"},
      {"measurement": "Activity", "setting": "4T1 [10]", "result": 64.5, "unit": "%"},
      {"measurement": "Activity", "setting": "[11]", "result": "Non-Toxic"},
      {"measurement": "Drug metabolism", "setting": "[12]", "result": "Metabolite_Detected"},
      {"measurement": "inhibition", "setting": "4T1 [13]", "result": "Active"},
      {"measurement": "Activity", "setting": "[14]", "result": "Non-Toxic"}
    ]}
  ]
}
